Data from patent US7098334B2 (Industrial Research Limited, priority 2002, dated 2006).

Legend:
[1] = molecular target: MTAN (Escherichia coli, UniProt P0AF12); assay: Enzyme inhibition assay, MTAN (slow-onset inhibition constants); format: biochemical; conditions: MTAN
Procedure: Ki as shown in Tables 1 and 2 is the initial inhibition constant formed by the enzyme-inhibitor complex, and Ki* is the equilibrium dissociation constant for inhibition that is observed following a period of slow-onset, tight binding inhibition. Ki* is the biologically effective constant.
Enzyme assays were conducted to assess the effectiveness of selected compounds of the invention as inhibitors of MTAP and MTAN.
Inhibitors.—Inhibitor concentrations were determined by the UV absorbance spectrum using the published millimolar extinction coefficients for 9-dazadenine of 8.5 at 275 nm at pH 7.0.
Assays.—The direct spectrophotometric assay for the conversion of MTA into adenine was measured as the decrease in absorbance at 274 nm. At 274 nm, Δε between MTA and adenine is at a maximum and produces a spectral change of 1.6 absorbance units/cm/mM (DeWolf, W. E. Jr., Fullin, F. A., and Schramm, V. L. (1979) J. Biol. Chem. 254, 10868–10875)
Slow-Onset Inhibition and Inhibition Constants.—The kinetics for slow onset inhibition and the Ki measurement was carried out by adding a known concentration of enzyme (1–5 nM) to a reaction mixture containing a substrate concentration of 200 μM. This concentration corresponds to an OD of 0.7–1.1 at […]. The formation of product was monitored as a decrease in absorbance at 274 nm. Conditions for Ki* determination used high concentrations of substrate. Two controls, one having no inhibitor and the other no enzyme were included in the experiment. The Ki values MTAP for the various compounds were calculated by fitting in the ratio of initial rates in the presence of inhibitor to without any inhibitor versus the inhibitor concentration, for the known Km and substrate concentration into the following expression.
Where Vo′ is the rate in the presence of inhibitor • Vo rate in the absence of inhibitor • [I] inhibitor concentration • And [S] is the substrate concentration
And the Ki* was calculated by fitting to the following expression
Where Vs′ is the steady-state rate following attainment of equilibrium in the presence inhibitor, and Vs is the steady-state rate in the control having no inhibitor. Both these equations are valid for competitive type inhibition.

[2] = molecular target: T1, mouse liver MTAP (Mus musculus, UniProt Q9CQ65); assay: MTAP activity in liver extracts of treated mice; format: in vivo
T1 construct: from tissue; host or cells: mouse liver protein extract
T1 sequence (Q9CQ65 1-283): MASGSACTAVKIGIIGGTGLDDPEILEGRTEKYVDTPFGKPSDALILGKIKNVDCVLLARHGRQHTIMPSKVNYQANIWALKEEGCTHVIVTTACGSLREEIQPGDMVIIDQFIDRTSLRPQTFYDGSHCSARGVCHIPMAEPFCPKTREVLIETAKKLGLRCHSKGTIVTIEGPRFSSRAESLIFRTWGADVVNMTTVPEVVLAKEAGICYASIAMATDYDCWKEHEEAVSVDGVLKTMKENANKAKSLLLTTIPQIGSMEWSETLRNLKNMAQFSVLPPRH
Procedure: Following 30 to 60 min, blood was collected or mice were sacrificed and the liver removed for tissue analysis. MTAP activity in mouse blood was measured by the conversion of radioactive MTA to radioactive 5-methylthio-α-D-ribose 1-phosphate (MTR-1P). The assay mixture contained 50 mM phosphate buffer, 1 mM dithiothreitol, 26 μM [5′-^14C]MTA with specific radioactivity of 2 μCi/μmole, 0.5% triton X-100, and the desired amount of tissue sample, in a total volume of 100 μL. Reactions were stopped at various times by the addition of perchloric acid to decrease the pH to 2.0. The protein precipitate was removed by centrifugation, and the supernatant was neutralized to near pH 7 before being placed on a charcoal column. The column was eluted with buffer near pH 7. The product MTR-1P elutes, while unreacted [5′-^14C]MTA remains on the column. The amount of MTAP activity from control and treated mice is compared.

[3] = oral administration of 10 μmoles

MTAN, sequence (P0AF12 whole entry): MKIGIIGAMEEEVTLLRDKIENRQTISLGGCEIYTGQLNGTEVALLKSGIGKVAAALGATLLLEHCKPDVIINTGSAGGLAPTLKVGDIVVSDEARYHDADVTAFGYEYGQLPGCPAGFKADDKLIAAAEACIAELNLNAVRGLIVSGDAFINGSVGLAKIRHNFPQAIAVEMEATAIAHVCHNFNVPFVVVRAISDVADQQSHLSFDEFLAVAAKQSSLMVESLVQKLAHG

How did the Ki ([1]; Ki*, equilibrium dissociation constant after slow-onset, tight binding inhibition) turn out when CSC[C@H]1N[C@@H](c2c[nH]c3c(N)ncnc23)C(O)[C@H]1O (stereo partly shown) [5′-methylthio-ImmA] was run?
The Ki was 77 ± 20 pM.

What about the Ki ([1]; Ki, initial inhibition constant) of the same compound?
The Ki was 130 ± 12 pM.

What about the “Ki*” value ([1]; equilibrium dissociation constant after slow-onset, tight binding inhibition) of the same compound?
Its value is “in the pM range”.

And the “reduction of MTAP activity of liver extract” value ([2]; intraperitoneal injection of 0.1 micromole)?
Its value is 70%.

What about the “reduction of MTAP activity of liver extract” value ([2]; intraperitoneal injection of 1.0 micromole) of the same compound?
Its value is 77%.

What about the “MTAP activity in liver extracts (in words)” value ([2]; intravenous injection) of the same compound?
Its value is “no detectable MTAP activity”.

What about the “inhibition of liver MTAP” value ([2]; intravenous injection) of the same compound?
The value was over 95%.

And the “inhibition of liver MTAP” value [2, 3]?
The value was 90%.

What about the “oral availability to MTAP inside tissues (in words)” value [2, 3] of the same compound?
Its value is “orally available”.

And the “rate of conversion of MTA to products by MTAP in extracts of liver” value ([2]; oral administration of 10 μmoles, control 1.0)?
Its value is 0.09 nMole/min/mg of liver protein extract.
